Experimental findings from PubChem BioAssay (NCI) are described below.

Some test systems named below: CAKI-1 renal; OVCAR-8 ovarian; NCI-H23 lung; SK-MEL-28 melanoma; OVCAR-3 ovarian; BT-549 breast; U251 CNS; HCT-116 colon; K-562 leukemia; SR leukemia.
Common to all, as to experiment: growth of human tumour cells (NCI), 48 h

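A five-concentration, 48-hour dose response in 96-well plates underlies each endpoint, interpolated linearly between surrounding concentrations. Abbreviation: GI50, concentration required for 50% inhibition of growth. The concentration for full growth arrest is given as TGI.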

`CCOC(=O)C(/C=N/C(N)=S)=C(/O)c1ccccc1`: the TGI in the assay with CAKI-1 renal, with OVCAR-8 ovarian, with NCI-H23 lung, with SK-MEL-28 melanoma, with OVCAR-3 ovarian and in the assay with BT-549 breast was > 100 µM throughout. For the same compound, the TGI in the assay with U251 CNS and in the assay with HCT-116 colon was > 100 µM in each case.
As to `O=CC1C(=O)Nc2nc3ccccc3n2C1c1ccccc1` (configuration not stated), the TGI in the assay with CAKI-1 renal is 48.5 µM; with K-562 leukemia, 35.3 µM; in the assay on OVCAR-8 ovarian, 46.1 µM; in the assay on NCI-H23 lung, 53.5 µM; in the assay on SK-MEL-28 melanoma, 46.4 µM; in the assay on OVCAR-3 ovarian, 20.7 µM. Besides, the TGI turned out to be 28.4 µM in the assay on BT-549 breast, 29.1 µM in the assay with U251 CNS and 24.9 µM in the assay with HCT-116 colon.
With `COc1cc2oc(=O)cc(C)c2c(OC)c1OC`, the TGI with K-562 leukemia, with OVCAR-8 ovarian, in the assay with NCI-H23 lung, with SR leukemia, with SK-MEL-28 melanoma and in the assay with OVCAR-3 ovarian was > 100 µM in each case. Moreover, the TGI with U251 CNS and with HCT-116 colon was > 100 µM throughout.
Consider `C[C@@H](Br)[C@@H]1CC[C@H]2c3[nH]c4ccccc4c3CCN2C1`, for which the TGI in the assay on CAKI-1 renal is 52.4 µM; in the assay on K-562 leukemia it was 38.6 µM; in the assay on OVCAR-8 ovarian it was > 100 µM; with NCI-H23 lung, 67.1 µM; in the assay on SR leukemia, 38.3 µM; in the assay with SK-MEL-28 melanoma, > 100 µM. Also, the TGI in the assay on OVCAR-3 ovarian is 42.4 µM; with U251 CNS, 55.8 µM.
Consider `Cc1nc2ccccc2n1Cc1ccc(NC(=S)NC2CCCCC2)cc1`, for which the TGI in the assay on CAKI-1 renal is > 100 µM; in the assay on K-562 leukemia it was > 100 µM; in the assay with OVCAR-8 ovarian it was > 100 µM; in the assay with NCI-H23 lung, > 100 µM; in the assay on SK-MEL-28 melanoma, > 100 µM; in the assay on OVCAR-3 ovarian, > 70.3 µM. Moreover, the TGI with BT-549 breast, with U251 CNS and in the assay on HCT-116 colon was > 100 µM throughout.
Turning to `COc1ccc(-c2c3c(n(C4OC(COC(C)=O)C(OC(C)=O)C(OC(C)=O)C4OC(C)=O)c(=S)c2C#N)CCCC3)cc1` (configuration not stated), the TGI was 79.9 µM with CAKI-1 renal; > 100 µM in the assay with K-562 leukemia; > 100 µM with OVCAR-8 ovarian; > 100 µM with NCI-H23 lung; > 100 µM with SR leukemia; > 100 µM with SK-MEL-28 melanoma. For the same compound, the figures for the TGI in the assay on OVCAR-3 ovarian, in the assay with U251 CNS and in the assay with HCT-116 colon were 92.6 µM, > 100 µM and > 100 µM, respectively.
On to `COc1ccc(OC/C(N=Cc2cccnc2)=N/NC(=O)c2ccncc2)cc1`, for which the TGI in the assay on CAKI-1 renal, in the assay with K-562 leukemia, in the assay with OVCAR-8 ovarian, in the assay with NCI-H23 lung, in the assay with SK-MEL-28 melanoma and in the assay with OVCAR-3 ovarian was > 100 µM in each case. In addition, the TGI with BT-549 breast, in the assay on U251 CNS and with HCT-116 colon was > 100 µM in each case.
As for `Cc1cccc2c1CC1(Cc3c(C)cccc3C1=O)C2=O`, the TGI in the assay on CAKI-1 renal, in the assay on K-562 leukemia, with OVCAR-8 ovarian, with NCI-H23 lung, in the assay with SR leukemia and in the assay on SK-MEL-28 melanoma was > 100 µM in each case. Besides, the TGI with OVCAR-3 ovarian, with U251 CNS and with HCT-116 colon was > 100 µM each time.
Consider `CCN(CC)C(=O)CCNC(C)Cc1c[nH]c2ccccc12` (configuration not stated), for which the TGI in the assay on CAKI-1 renal, in the assay with K-562 leukemia, in the assay on OVCAR-8 ovarian, in the assay with NCI-H23 lung, in the assay on SR leukemia and in the assay with SK-MEL-28 melanoma was > 100 µM in each case. In addition, the TGI with OVCAR-3 ovarian, in the assay on U251 CNS and with HCT-116 colon was > 100 µM throughout.
With `CNC(=S)c1nnsc1N`, the TGI in the assay on CAKI-1 renal, in the assay on K-562 leukemia, in the assay with OVCAR-8 ovarian, with NCI-H23 lung, in the assay with SK-MEL-28 melanoma and with OVCAR-3 ovarian was > 100 µM each time. The TGI in the assay on BT-549 breast, in the assay with U251 CNS and in the assay with HCT-116 colon was > 100 µM throughout.
With `CCOc1ccnc2c(OC)c(C)c3nc4ccccc4nc3c12`, the TGI in the assay with CAKI-1 renal, with K-562 leukemia, with OVCAR-8 ovarian, in the assay on NCI-H23 lung, with SR leukemia and in the assay on SK-MEL-28 melanoma was > 100 µM throughout. For the same compound, the TGI in the assay with OVCAR-3 ovarian, in the assay on U251 CNS and in the assay on HCT-116 colon was > 100 µM in each case.
As to `CN=C(NC#N)NCc1ccccc1`, the TGI with CAKI-1 renal, in the assay on OVCAR-8 ovarian, with NCI-H23 lung, in the assay with SR leukemia, with SK-MEL-28 melanoma and with OVCAR-3 ovarian was > 100 µM throughout. Besides, the TGI in the assay on U251 CNS and in the assay on HCT-116 colon was > 100 µM throughout.
In the case of `CN(C)C=Nc1cccc2c1NSN2`, the TGI in the assay on CAKI-1 renal, in the assay on K-562 leukemia, in the assay with OVCAR-8 ovarian, in the assay on NCI-H23 lung, in the assay on SR leukemia and in the assay on SK-MEL-28 melanoma was > 100 µM throughout. For the same compound, the TGI in the assay with OVCAR-3 ovarian, with U251 CNS and in the assay with HCT-116 colon was > 100 µM each time.
As for `COc1cc(/C=C2\CCCC3=C2N=C2SC=NN2C3c2cc(OC)c(OC)c(OC)c2)cc(OC)c1OC` (configuration not stated), the GI50 is 3.43 µM in the assay with CAKI-1 renal; 3.08 µM with K-562 leukemia; 3.23 µM with OVCAR-8 ovarian; 2.55 µM in the assay on SR leukemia; 2.07 µM with SK-MEL-28 melanoma; 3.02 µM in the assay on OVCAR-3 ovarian. Moreover, the GI50 in the assay on HCT-116 colon was 1.76 µM. Moreover, the TGI in the assay on CAKI-1 renal was > 100 µM; with K-562 leukemia, > 100 µM; with OVCAR-8 ovarian it was 29.8 µM; in the assay with SR leukemia, 9.47 µM; with SK-MEL-28 melanoma it was 5.26 µM; with OVCAR-3 ovarian, 9.32 µM. The TGI in the assay with HCT-116 colon came out at 3.41 µM.
